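Values below derive from 48-hour exposures of cells grown in 96-well plates, with endpoints linearly interpolated between the two concentrations bracketing the appropriate inhibition level. TGI: concentration producing complete growth inhibition.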
Columns and labels:
Experiment in all cases: NCI-60 cell line screen, 48 h
786-0 renal = test system: 786-0 renal
A498 renal = test system: A498 renal
A549 NSCLC = test system: A549 NSCLC
ACHN renal = test system: ACHN renal
BT-549 breast = test system: BT-549 breast
CAKI-1 renal = test system: CAKI-1 renal
CCRF-CEM leukemia = test system: CCRF-CEM leukemia
COLO 205 colon = test system: COLO 205 colon
DU-145 prostate = test system: DU-145 prostate
EKVX NSCLC = test system: EKVX NSCLC
HCC-2998 colon = test system: HCC-2998 colon
HCT-116 colon = test system: HCT-116 colon
HCT-15 colon = test system: HCT-15 colon
HL-60(TB) leukemia = test system: HL-60(TB) leukemia
HOP-62 NSCLC = test system: HOP-62 NSCLC
HS 578T breast = test system: HS 578T breast
HT29 colon = test system: HT29 colon
IGROV1 ovarian = test system: IGROV1 ovarian
K-562 leukemia = test system: K-562 leukemia
KM12 colon = test system: KM12 colon
LOX IMVI melanoma = test system: LOX IMVI melanoma
M14 melanoma = test system: M14 melanoma
MALME-3M melanoma = test system: MALME-3M melanoma
MCF7 breast = test system: MCF7 breast
MDA-MB-231 breast = test system: MDA-MB-231 breast
MDA-MB-435 = test system: MDA-MB-435
MDA-N = test system: MDA-N
MOLT-4 leukemia = test system: MOLT-4 leukemia
NCI-H226 lung = test system: NCI-H226 lung
NCI-H23 lung = test system: NCI-H23 lung
NCI-H460 lung = test system: NCI-H460 lung
NCI/ADR-RES ovarian = test system: NCI/ADR-RES ovarian
OVCAR-3 ovarian = test system: OVCAR-3 ovarian
OVCAR-4 ovarian = test system: OVCAR-4 ovarian
OVCAR-5 ovarian = test system: OVCAR-5 ovarian
OVCAR-8 ovarian = test system: OVCAR-8 ovarian
PC-3 prostate = test system: PC-3 prostate
RPMI-8226 leukemia = test system: RPMI-8226 leukemia
RXF 393 renal = test system: RXF 393 renal
SF-268 CNS = test system: SF-268 CNS
SF-295 CNS = test system: SF-295 CNS
SF-539 CNS = test system: SF-539 CNS
SK-MEL-2 melanoma = test system: SK-MEL-2 melanoma
SK-MEL-28 melanoma = test system: SK-MEL-28 melanoma
SK-MEL-5 melanoma = test system: SK-MEL-5 melanoma
SK-OV-3 ovarian = test system: SK-OV-3 ovarian
SN12C renal = test system: SN12C renal
SNB-19 CNS = test system: SNB-19 CNS
SNB-75 CNS = test system: SNB-75 CNS
SR leukemia = test system: SR leukemia
SW-620 colon = test system: SW-620 colon
T-47D breast = test system: T-47D breast
TK-10 renal = test system: TK-10 renal
U251 CNS = test system: U251 CNS
UACC-257 melanoma = test system: UACC-257 melanoma
UACC-62 melanoma = test system: UACC-62 melanoma
UO-31 renal = test system: UO-31 renal
HOP-92 NSCLC = test system: HOP-92 NSCLC
NCI-H522 lung = test system: NCI-H522 lung

Cc1nn(-c2ccccc2)c(C)c1/C=N/NC(=O)c1sc(=S)n(-c2ccccc2)c1N
TGI (786-0 renal): > 100 µM | TGI (A498 renal): 59.3 µM | TGI (A549 NSCLC): 34.8 µM | TGI (ACHN renal): 4.32 µM | TGI (BT-549 breast): > 100 µM | TGI (CAKI-1 renal): 7.53 µM | TGI (CCRF-CEM leukemia): > 100 µM | TGI (COLO 205 colon): 3.55 µM | TGI (DU-145 prostate): > 100 µM | TGI (EKVX NSCLC): 8.17 µM | TGI (HCC-2998 colon): 13.5 µM | TGI (HCT-116 colon): 34.5 µM | TGI (HCT-15 colon): > 100 µM | TGI (HL-60(TB) leukemia): > 100 µM | TGI (HOP-62 NSCLC): > 100 µM | TGI (HS 578T breast): 8.46 µM | TGI (HT29 colon): 19.7 µM | TGI (IGROV1 ovarian): 1.79 µM | TGI (K-562 leukemia): > 100 µM | TGI (KM12 colon): > 100 µM | TGI (LOX IMVI melanoma): 5.12 µM | TGI (M14 melanoma): > 100 µM | TGI (MALME-3M melanoma): > 100 µM | TGI (MCF7 breast): > 100 µM | TGI (MDA-MB-231 breast): 7.78 µM | TGI (MDA-MB-435): > 100 µM | TGI (MDA-N): > 100 µM | TGI (MOLT-4 leukemia): > 100 µM | TGI (NCI-H226 lung): 79.1 µM | TGI (NCI-H23 lung): > 100 µM | TGI (NCI-H460 lung): 16.3 µM | TGI (NCI/ADR-RES ovarian): > 100 µM | TGI (OVCAR-3 ovarian): > 100 µM | TGI (OVCAR-4 ovarian): 8.74 µM | TGI (OVCAR-5 ovarian): > 100 µM | TGI (OVCAR-8 ovarian): > 100 µM | TGI (PC-3 prostate): > 100 µM | TGI (RPMI-8226 leukemia): 31.2 µM | TGI (RXF 393 renal): 4.36 µM | TGI (SF-268 CNS): > 100 µM | TGI (SF-295 CNS): 6.55 µM | TGI (SF-539 CNS): 25.6 µM | TGI (SK-MEL-2 melanoma): > 100 µM | TGI (SK-MEL-28 melanoma): 48 µM | TGI (SK-MEL-5 melanoma): > 100 µM | TGI (SK-OV-3 ovarian): > 100 µM | TGI (SN12C renal): > 100 µM | TGI (SNB-19 CNS): > 100 µM | TGI (SNB-75 CNS): 3.98 µM | TGI (SR leukemia): > 100 µM | TGI (SW-620 colon): > 100 µM | TGI (T-47D breast): > 100 µM | TGI (TK-10 renal): 7.19 µM | TGI (U251 CNS): > 100 µM | TGI (UACC-257 melanoma): > 100 µM | TGI (UACC-62 melanoma): > 100 µM | TGI (UO-31 renal): > 100 µM

CCOC(=O)/C(=C\c1ccc(CO)o1)P(=O)(OCC)OCC
TGI (786-0 renal): 45.3 µM | TGI (A498 renal): > 100 µM | TGI (A549 NSCLC): > 100 µM | TGI (ACHN renal): > 100 µM | TGI (BT-549 breast): 45 µM | TGI (CAKI-1 renal): > 100 µM | TGI (COLO 205 colon): 51 µM | TGI (DU-145 prostate): > 100 µM | TGI (EKVX NSCLC): > 100 µM | TGI (HCC-2998 colon): > 100 µM | TGI (HCT-116 colon): 43.8 µM | TGI (HCT-15 colon): 33.2 µM | TGI (HOP-62 NSCLC): > 100 µM | TGI (HOP-92 NSCLC): 53.7 µM | TGI (HS 578T breast): > 100 µM | TGI (HT29 colon): > 100 µM | TGI (IGROV1 ovarian): > 100 µM | TGI (KM12 colon): > 100 µM | TGI (LOX IMVI melanoma): 41.3 µM | TGI (M14 melanoma): 98 µM | TGI (MALME-3M melanoma): 50 µM | TGI (MCF7 breast): > 100 µM | TGI (MDA-MB-231 breast): 93.5 µM | TGI (MDA-MB-435): 86.9 µM | TGI (MDA-N): 47.8 µM | TGI (MOLT-4 leukemia): > 100 µM | TGI (NCI-H226 lung): > 100 µM | TGI (NCI-H23 lung): 57.8 µM | TGI (NCI-H460 lung): 32.6 µM | TGI (NCI-H522 lung): 15.4 µM | TGI (NCI/ADR-RES ovarian): > 100 µM | TGI (OVCAR-3 ovarian): 59.9 µM | TGI (OVCAR-4 ovarian): 35.9 µM | TGI (OVCAR-5 ovarian): > 100 µM | TGI (PC-3 prostate): > 100 µM | TGI (RPMI-8226 leukemia): 91.4 µM | TGI (RXF 393 renal): 71.1 µM | TGI (SF-268 CNS): 75.8 µM | TGI (SF-295 CNS): > 100 µM | TGI (SF-539 CNS): 40.3 µM | TGI (SK-MEL-2 melanoma): 92.2 µM | TGI (SK-MEL-28 melanoma): 82.3 µM | TGI (SK-MEL-5 melanoma): > 100 µM | TGI (SK-OV-3 ovarian): > 100 µM | TGI (SN12C renal): 96.2 µM | TGI (SNB-19 CNS): > 100 µM | TGI (SNB-75 CNS): > 100 µM | TGI (SR leukemia): 71.6 µM | TGI (SW-620 colon): 60.9 µM | TGI (T-47D breast): > 100 µM | TGI (TK-10 renal): > 100 µM | TGI (U251 CNS): > 100 µM | TGI (UACC-257 melanoma): > 100 µM | TGI (UACC-62 melanoma): > 100 µM
